Results reported in patent US7915448B2, “Substituted sulfonylaminoarylmethyl cyclopropanecarboxamide as VR1 receptor antagonists” (Pfizer Inc., priority 2005, dated 2011).
pIC50: −log10 of the molar value.

What was measured:
[1] = Half-life in Human Liver Microsomes (HLM); conditions: human, human liver microsomes (HL101), pH 7.4
Experimental: Test compounds (1 μM) were incubated with 3.3 mM MgCl2 and 0.78 mg/mL HLM (HL101) in 100 mM potassium phosphate buffer (pH 7.4) at 37° C. on the 96-deep well plate. The reaction mixture was split into two groups, a non-P450 and a P450 group. NADPH was only added to the reaction mixture of the P450 group. An aliquot of samples of P450 group was collected at 0, 10, 30, and 60 min time point, where 0 min time point indicated the time when NADPH was added into the reaction mixture of P450 group. An aliquot of samples of non-P450 group was collected at −10 and 65 min time point. Collected aliquots were extracted with acetonitrile solution containing an internal standard. The precipitated protein was spun down in centrifuge (2000 rpm, 15 min). The compound concentration in supernatant was measured by LC/MS/MS system.
The half-life value was obtained by plotting the natural logarithm of the peak area ratio of compounds/internal standard versus time. The slope of the line of best fit through the points yields the rate of metabolism (k).

human VR1 receptors = target: T1, human VR1 receptors (Homo sapiens, UniProt Q8NER1); experiment: Human VR1 antagonist assay (Ca2+ imaging); format: cell-based; conditions: cells expressing human VR1, fura-2 Ca2+ imaging, FDSS 6000; capsaicin (300 nM) or acid (pH5.8) stimulation, table does not say which
T1 construct: host or cells: cells highly expressing human VR1; cell type not specified
T1 sequence (Q8NER1 whole entry): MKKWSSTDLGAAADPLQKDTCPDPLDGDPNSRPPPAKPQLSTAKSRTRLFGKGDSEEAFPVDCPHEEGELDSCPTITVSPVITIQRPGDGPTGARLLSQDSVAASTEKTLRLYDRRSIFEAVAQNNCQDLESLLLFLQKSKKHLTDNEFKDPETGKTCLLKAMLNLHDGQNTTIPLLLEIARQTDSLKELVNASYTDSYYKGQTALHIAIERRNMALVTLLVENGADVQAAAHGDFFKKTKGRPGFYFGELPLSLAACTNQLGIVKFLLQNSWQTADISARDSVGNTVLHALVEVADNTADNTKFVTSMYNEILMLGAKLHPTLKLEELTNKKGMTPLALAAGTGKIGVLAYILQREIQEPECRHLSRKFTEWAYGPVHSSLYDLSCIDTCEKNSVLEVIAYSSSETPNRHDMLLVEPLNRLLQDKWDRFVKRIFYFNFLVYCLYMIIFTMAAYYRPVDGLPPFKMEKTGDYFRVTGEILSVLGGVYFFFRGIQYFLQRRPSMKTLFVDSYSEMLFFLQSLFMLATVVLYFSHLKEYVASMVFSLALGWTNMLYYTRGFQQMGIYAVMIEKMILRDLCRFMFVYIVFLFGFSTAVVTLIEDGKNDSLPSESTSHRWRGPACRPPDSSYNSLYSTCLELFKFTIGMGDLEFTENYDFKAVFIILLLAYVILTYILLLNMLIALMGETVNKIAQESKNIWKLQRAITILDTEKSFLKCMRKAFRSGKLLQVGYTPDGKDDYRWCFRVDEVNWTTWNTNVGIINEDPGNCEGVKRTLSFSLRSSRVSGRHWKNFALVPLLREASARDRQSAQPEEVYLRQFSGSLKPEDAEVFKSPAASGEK
From the text: Human VR1 Antagonist Assay
VR1 antagonistic activity can be determined by the Ca^2+ imaging assay using human VR1 highly expressing cells. The cells that highly express human VR1 receptors are obtainable from several different conventional methods. The one standard method is cloning from human Dorsal Root Ganglion (DRG) or kidney according to the methods such as described in the journal article; Nature, 389, pp 816-824, 1997. Alternatively VR1 receptors highly expressing human keratinocytes are also known and published in the journal article (Biochemical and Biophysical Research Communications, 291, pp 124-129, 2002). […] Further more, the method to up regulate human VR1 gene, which is usually a silent gene or don't produce detectable level of VR1 receptors, is also available to obtain propriety cells. Such genetic modification method was described in detail; Nat. Biotechnol., 19, pp 440-445, 2001.
The cells that express human VR1 receptors were maintained in culture flask at 37° C. in an environment containing 5% CO2 until use in the assay. The intracellular Ca^2+ imaging assay to determine VR1 antagonistic activities were done by following procedures.
The culture medium was removed from the flask and fura-2/AM fluorescent calcium indicator was added to the flask at a concentration of 5 μM in the medium. The flask was placed in CO2 incubator and incubated for 1 hour. Then the cells expressing the human VR1 receptors were detached from the flask follow by washing with phosphate buffer saline, PBS(−) and re-suspended in assay buffer. The 80 μl of aliquot of cell suspension (3.75×10^5 cells/ml) was added to the assay plate and the cells were spun down by centrifuge (950 rpm, 20° C., 3 minutes).
Capsaicin Stimulation Assay:
The capsaicin-induced changes in the intracellular calcium concentration were monitored using FDSS 6000 (Hamamatsu Photonics, Japan), a fluorometric imaging system. The cell suspension in Krebs-Ringer HEPES (KRH) buffer (115 mM NaCl, 5.4 mM KCl, 1 mM MgSO4, 1.8 mM CaCl2, 11 mM D-Glucose, 25 mM HEPES, 0.96 mM Na2HPO4, pH 7.3) were pre-incubated with varying concentrations of the test compounds or KRH buffer (buffer control) for 15 minutes at room temperature under the dark condition. Then capsaicin solution, which gives 300 nM in assay mixture, was automatically added to the assay plate by the FDSS 6000.
The Acid-induced changes in the intracellular calcium concentration were monitored using FDSS 6000 (Hamamatsu Photonics, Japan), a fluorometric imaging system. The cell suspension in resting buffer (HBSS supplemented with 10 mM HEPES, pH 7.4) were pre-incubated with varying concentrations of the test compounds or resting buffer (buffer control) for 15 minutes at room temperature under the dark condition. The cells were automatically added the stimulating solution (HBSS supplemented with MES, final assay buffer pH5.8) by the FDSS 6000.
Determination of Antagonist Activity
The monitoring of the changes in the fluorescence signals (λex=340 nm/380 nm, λem=510-520 nm) was initiated at 1 minute prior to the addition of capsaicin solution or acidic buffer and continued for 5 minute.

| half-life at 1 μM [1] [min] | pIC50 (human VR1 receptors) | Structure (SMILES) |
| --- | --- | --- |
| 13 | 6.48 | CC(C)(C)c1ccc(C2CC2C(=O)NCc2ccc(NS(C)(=O)=O)c(F)c2)cc1 (stereo not drawn) [Example 1, 2-(4-tert-Butylphenyl)-N-{3-fluoro-4-[(methylsulfonyl)amino]benzyl}cyclopropanecarboxamide] |
| 95 | 8.25 | C[C@@H](NC(=O)C1CC1(C)c1ccc(C(F)(F)F)c(F)c1)c1ccc(NS(C)(=O)=O)c(F)c1 (stereo partly drawn) [Example 67, N-((1R)-1-{3-Fluoro-4-[(methylsulfonyl)amino]phenyl}ethyl)-2-[3-fluoro-4-(trifluoromethyl)phenyl]-2-methylcyclopropanecarboxamide] |
| 30 | 6.67 | C[C@@H](NC(=O)C1CC1(C)c1ccc(S(=O)(=O)C(F)(F)F)cc1)c1ccc(NS(C)(=O)=O)c(CO)c1 (stereo partly drawn) [Example 69, N-((1R)-1-{3-(Hydroxymethyl)-4-[(methylsulfonyl)amino]phenyl}ethyl)-2-methyl-2-{4-[(trifluoromethyl)sulfonyl]phenyl}cyclopropanecarboxamide] |
| 21 | 9.63 | Cc1cc([C@@H](C)NC(=O)[C@H]2C[C@]2(C)c2ccc(C(F)(F)F)cc2)c(F)cc1NS(C)(=O)=O [Example 41, (1S,2S)-N-((1R)-1-{2-Fluoro-5-methyl-4-[(methylsulfonyl)amino]phenyl}ethyl)-2-methyl-2-[4-(trifluoromethyl)phenyl]cyclopropanecarboxamide] |
| 41 | 7.68 | C[C@@H](NC(=O)[C@H]1C[C@]1(C)c1cc(F)c(C(C)(C)C)c(F)c1)c1ccc(NS(C)(=O)=O)cc1 [Example 43, 2-(4-tert-Butyl-3,5-difluorophenyl)-2-methyl-N-((1R)-1-{4-[(methylsulfonyl)amino]phenyl}ethyl)cyclopropanecarboxamide] |
| > 120 | 7.60 | C[C@@H](NC(=O)[C@H]1C[C@]1(C)c1ccc(C(F)(F)F)cc1)c1cc(F)c(NS(C)(=O)=O)cc1F [Example 60, (1S,2S)-N-((1R)-1-{2,5-Difluoro-4-[(methylsulfonyl)amino]phenyl}ethyl)-2-methyl-2-[4-(trifluoromethyl)phenyl]cyclopropanecarboxamide] |
| 42 | 6.77 | Cc1nc([C@@H](C)NC(=O)C2CC2(C)c2ccc(C(C)(C)C(F)(F)F)cc2)ccc1NS(C)(=O)=O (stereo partly drawn) [Example 9, 2-Methyl-N-((1R)-1-{6-methyl-5-[(methylsulfonyl)amino]pyridin-2-yl}ethyl)-2-[4-(2,2,2-trifluoro-1,1-dimethylethyl)phenyl]cyclopropanecarboxamide] |
| 35.6 | 8.18 | COC1(c2ccc(C(F)(F)F)cc2)CC1C(=O)N[C@H](C)c1ccc(NS(C)(=O)=O)c(C)c1 (stereo partly drawn) [Example 63, N-((1R)-1-{3-Methyl-4-[(methylsulfonyl)amino]phenyl}ethyl)-2-(methyloxy)-2-[4-(trifluoromethyl)phenyl]cyclopropanecarboxamide] |
| 25 | 8.11 | Cc1cc([C@@H](C)NC(=O)C2CC2(C)c2ccc(C(C)(C)C(F)(F)F)cc2)ccc1NS(C)(=O)=O (stereo partly drawn) [Example 27] |
| 50 | 7.30 | C[C@@H](NC(=O)C1CC1(C)c1ccc(C(C)(C)C(F)(F)F)cc1)c1ccc(NS(C)(=O)=O)c(F)c1 (single isomer, unassigned) [Example 77] |
| 3 | 6.90 | Cc1cc([C@@H](C)NC(=O)C2CC2c2ccc(C(C)(C)C)nc2N2CCCCC2)ccc1NS(C)(=O)=O (stereo partly drawn) [Example 49, 2-(6-tert-Butyl-2-piperidin-1-ylpyridin-3-yl)-N-((1R)-1-{3-methyl-4-[(methylsulfonyl)amino]phenyl}ethyl)cyclopropanecarboxamide] |
| > 120 | 8.50 | C[C@@H](NC(=O)[C@H]1C[C@]1(C)c1ccc(C(F)(F)F)cc1)c1cc(F)c(NS(C)(=O)=O)c(F)c1 [Example 61, (1S,2S)-N-((1R)-1-{3,5-Difluoro-4-[(methylsulfonyl)amino]phenyl}ethyl)-2-methyl-2-[4-(trifluoromethyl)phenyl]cyclopropanecarboxamide] |
| 30 | 7.58 | C[C@@H](NC(=O)C1CC1(C)c1ccc(SC(F)(F)F)cc1)c1ccc(NS(C)(=O)=O)c(CO)c1 (stereo partly drawn) [Example 25] |
| 23 | 7.90 | Cc1cc([C@@H](C)NC(=O)[C@H]2C[C@@H]2c2ccc(C(F)(F)F)nc2N2CCCC2)ccc1NS(C)(=O)=O [Example 46, N-((1R)-1-{3-Methyl-4-[(methylsulfonyl)amino]phenyl}ethyl)-2-[2-pyrrolidin-1-yl-6-(trifluoromethyl)pyridin-3-yl]cyclopropanecarboxamide] |
| 44 | 6.90 | Cc1cc([C@@H](C)NC(=O)C2CC2c2ccc(C(C)(C)C)nc2)ccc1NS(C)(=O)=O (stereo partly drawn) [Example 53, 2-[6-tert-Butylpyridin-3-yl]-N-((1R)-1-{3-methyl-4-[(methylsulfonyl)amino]phenyl}ethyl)cyclopropanecarboxamide] |
| 22 | 8.44 | Cc1cc([C@@H](C)NC(=O)C2CC2(C)c2ccc(C(C)(C)C)nc2)ccc1NS(C)(=O)=O (stereo partly drawn) [Example 10, 2-(6-tert-Butylpyridin-3-yl)-2-methyl-N-((1R)-1-{3-methyl-4-[(methylsulfonyl)amino]phenyl}ethyl)cyclopropanecarboxamide] |
| 52.6 | 8.07 | CCc1cc([C@@H](C)NC(=O)C2CC2(C)c2cc(F)c(C(C)(C)C(F)(F)F)c(F)c2)ccc1NS(C)(=O)=O (single isomer, unassigned) [Example 72] |
| 35 | 7.49 | C[C@@H](NC(=O)[C@H]1C[C@@H]1c1cc(F)c(C(C)(C)C)c(F)c1)c1ccc(NS(C)(=O)=O)c(F)c1 [Example 40, 2-(4-tert-Butyl-3,5-difluorophenyl)-N-((1R)-1-{3-fluoro-4-[(methylsulfonyl)amino]phenyl}ethyl)cyclopropanecarboxamide] |
| 61 | 7.91 | Cc1cc([C@@H](C)NC(=O)C2CC2(C)c2ccc(OC(F)(F)F)cc2)ccc1NS(C)(=O)=O (single isomer, unassigned) [Example 28] |
| 29 | 8.23 | C[C@@H](NC(=O)[C@H]1C[C@]1(C)c1cc(F)c(C(C)(C)C)c(F)c1)c1ccc(NS(C)(=O)=O)c(F)c1 [Example 45, 2-(4-tert-Butyl-3,5-difluorophenyl)-N-((1R)-1-{3-fluoro-4-[(methylsulfonyl)amino]phenyl}ethyl)-2-methylcyclopropanecarboxamide] |
| 40 | 7.15 | C[C@@H](NC(=O)[C@H]1C[C@@H]1c1cc(F)c(C(C)(C)C)c(F)c1)c1ccc(NS(C)(=O)=O)cc1 [Example 38, 2-[4-tert-Butyl-3,5-difluorophenyl]-N-((1R)-1-{4-[(methylsulfonyl)amino]phenyl}ethyl)cyclopropanecarboxamide] |
| 32 | 6.86 | Cc1cc([C@@H](C)NC(=O)C2CC2c2cc(F)c(C(C)(C)C(F)(F)F)c(F)c2)ccc1NS(C)(=O)=O (single isomer, unassigned) [Example 30] |
| 29 | 8.70 | Cc1cc([C@@H](C)NC(=O)[C@H]2C[C@]2(C)c2cc(F)c(C(C)(C)C)c(F)c2)ccc1NS(C)(=O)=O [Example 44, 2-(4-tert-Butyl-3,5-difluorophenyl)-2-methyl-N-((1R)-1-{3-methyl-4-[(methylsulfonyl)amino]phenyl}ethyl)cyclopropanecarboxamide] |
| > 120 | 7.96 | C[C@@H](NC(=O)[C@H]1C[C@]1(C)c1ccc(C(F)(F)F)cc1)c1ccc(NS(C)(=O)=O)c(F)c1 [Example 23, (1S,2S)-N-((1R)-1-{3-Fluoro-4-[(methylsulfonyl)amino]phenyl}ethyl)-2-methyl-2-[4-(trifluoromethyl)phenyl]cyclopropanecarboxamide] |
